Laboratory results from patent US12491170B2, “Stable treprostinil prodrugs” (United Therapeutics Corporation, priority 2020, dated 2025).

What was measured:
[1] = Stability in cryopreserved hepatocytes, rat
Description: (§1) Mixed-gender human cryopreserved hepatocytes, male Sprague-Dawley rat cryopreserved hepatocytes, and male Beagle dog cryopreserved hepatocytes were purchased from XenoTech. The hepatocytes were thawed and prepared according to the vendor's instructions, pooled into Krebs Henseleit buffer (KHB, pH 7.4), and kept on ice prior to the experiments. […] The final DMSO content in the incubation mixture was ≤0.1%. […] Aliquots of the test article were withdrawn (n=1) at 0, 15, 30, 60, and 120 minutes. […] Aliquots of 7-HC were withdrawn (n=1) at 0 and 15 minutes. The reaction was immediately terminated by adding two volumes of ice-cold acetonitrile (ACN) to the test article samples and three volumes of ACN containing internal standard to the positive control samples. The samples were then mixed and centrifuged to precipitate proteins. An aliquot of the supernatant was then diluted with water and analyzed by LC-MS/MS against calibration standards prepared in a matched matrix. […] All test article samples were analyzed for the dosed prodrugs as well as the drug, treprostinil. The test article concentration was compared to the concentration at time 0 to determine the percent of test article remaining at each time point. Half-lives and clearance values were calculated using GraphPad software, fitting to a single-phase exponential decay equation.

[2] = Stability in cryopreserved hepatocytes, dog
Description: as §1

[3] = Stability in cryopreserved hepatocytes, human
Description: as §1

[4] = Stability in human subcutaneous skin homogenate
Description: The pool of skin homogenate was prepared by combining equal volumes of three lots that were tested in the initial skin homogenate lot assessment experiments.
A stock solution of calcein-AM was first prepared at 5 mM in DMSO, followed by a serial dilution into methanol at a concentration of 100 μM. 495 μL of skin homogenate was thawed and warmed to 37° C. A 5 μL aliquot of the 100 μM calcein-AM solution was spiked into the skin homogenate, for a final calcein-AM dosing concentration of 1 μM. After briefly mixing, 150 μL aliquots were removed in triplicate and transferred to 96-well Falcon plates. The plates were placed onto a Thermomixer and maintained at 37° C., with gentle shaking for the duration of the experiment. At each time point (0, 15, 30, 60, and 120 minutes), the plate was removed from the Thermomixer and transferred to a FLUOstar® plate reader, and the formation of calcein (Sigma) was monitored by fluorescence (490/515 nm). Calibration standards of calcein were prepared in distilled water by serial dilutions of a calcein DMSO stock at final concentrations ranging from 1 μM to 1 nM. All samples and standards were read concurrently (Table 13).
For each of the test articles, 495 μL of skin homogenate was added to triplicate centrifuge tubes. To each tube, 5 μL of a 100 μM solution of test article was added, for a final test article dosing concentration of 1 μM. The tubes were placed onto a Thermomixer and maintained at 37° C. with gentle shaking for the duration of the experiment. At each time point (0, 30, 60, and 120 minutes), a 100 μL aliquot was removed from each tube and combined with 200 μL of acetonitrile to stop the stability reaction. The tubes were mixed and centrifuged at 3000 rpm for 10 minutes. Aliquots of supernatant were removed and diluted 1:1 with distilled water containing internal standard (2 μM treprostinil-d4). Calibration standards for the treprostinil analysis were prepared for each test article in a surrogate matrix (supernatant from a mixture of 1:2 human plasma:acetonitrile), at concentrations ranging from 1 μM to 1 nM. Calibration standards were also diluted 1:1 with distilled water containing internal standard. The disappearance of each individual test article was monitored, as well as the formation of treprostinil (Table 14 and Table 15).

[5] = Stability in liver microsomes, rat; settings: rat
Description: (§2) Mixed-gender human liver microsomes, male Sprague-Dawley rat liver microsomes, and male Beagle dog liver microsomes were purchased from XenoTech. The reaction mixture, minus NADPH, was prepared as described below. […] An aliquot of the reaction mixture (without cofactor) was equilibrated in a shaking water bath at 37° C. for 5 minutes. The reaction was initiated by the addition of cofactor, and the mixture was incubated in a shaking water bath at 37° C. Aliquots (200 μL) were withdrawn at 0, 10, 20, 30, and 60 minutes. Test article samples were immediately combined with 400 μL of ice-cold acetonitrile (ACN) to terminate the reaction. […] The samples were then mixed and centrifuged to precipitate proteins. Aliquots of the supernatant were removed, diluted 1:1 into distilled water containing internal standard, and analyzed by LC-MS/MS against calibration standards prepared in a matched matrix. All samples were analyzed for the dosed prodrugs as well as the drug, treprostinil. The test article concentration was compared to the concentration at time 0 to determine the percent of test article remaining at each time point. Half-lives and clearance were calculated using GraphPad software, fitting to a single-phase exponential decay equation.
(§3) • Liver Microsomes 0.5 mg/mL • NADPH (cofactor) 1 mM • Potassium Phosphate, pH 7.4 100 mM • Magnesium Chloride 5 mM • Test Article 1 μM

[6] = Stability in liver microsomes, dog; settings: dog
Description: as §2, §3

[7] = Stability in liver microsomes, human; settings: human
Description: as §2, §3

[8] = male, Sprague-Dawley, rat, 15 min, 100 μM, pH 7.4
[9] = male, Beagle, dog, 15 min, 100 μM, pH 7.4
[10] = both, human, 15 min, 100 μM, pH 7.4

Compound: O=c1ccc2ccc(O)cc2o1 [7-Hydroxycoumarin, 7-hydroxycoumarin, reference compound]
- Formation Rate of 7-HC-G (glucuronide) [1, 8]: 91.4 pmol/min/10^6 cells
- Formation Rate of 7-HC-S (sulfate) [1, 8]: 24.7 pmol/min/10^6 cells
- Formation Rate of 7-HC-G (glucuronide) [2, 9]: 114 pmol/min/10^6 cells
- Formation Rate of 7-HC-S (sulfate) [2, 9]: 35.9 pmol/min/10^6 cells
- Formation Rate of 7-HC-G (glucuronide) [3, 10]: 97.7 pmol/min/10^6 cells
- Formation Rate of 7-HC-S (sulfate) [3, 10]: 10.8 pmol/min/10^6 cells

Compound: CCCCCC(CCC1C(O)CC2Cc3c(cccc3OCC(=O)O)CC21)OC(=O)OC (stereo not drawn) [IV 1st]
- AUC ([4]; human): 7.07 µmol·min/L

Compound: CCCCCC(CCC1C(O)CC2Cc3c(cccc3OCC(=O)O)CC21)OC(=O)OC (stereo not drawn) [IV 2nd]
- AUC ([4]; human): 62.69 µmol·min/L

Compound: CCCCCC(CCC1C(O)CC2Cc3c(cccc3OCC(=O)O)CC21)OC(=O)OC (stereo not drawn) [IV 3rd]
- AUC ([4]; human): 9.59 µmol·min/L

Compound: CCCCCC(CCC1C(O)CC2Cc3c(cccc3OCC(=O)O)CC21)OCc1oc(=O)oc1C (stereo not drawn) [LI]
- Trep Concentration (μM) 0 min [1]: 0.327 µM
- Trep Concentration (μM) 15 min [1]: 0.703 µM
- Trep Concentration (μM) 30 min [1]: 0.61 µM
- Trep Concentration (μM) 60 min [1]: 0.523 µM
- Trep Concentration (μM) 120 min [1]: 0.464 µM
- AUC ([1]; rat): 64.18 µmol·min/L
- Trep Concentration (μM) 0 min [2]: 0.0214 µM
- Trep Concentration (μM) 15 min [2]: 0.627 µM
- Trep Concentration (μM) 30 min [2]: 0.605 µM
- Trep Concentration (μM) 60 min [2]: 0.537 µM
- Trep Concentration (μM) 120 min [2]: 0.482 µM
- AUC ([2]; dog): 61.80 µmol·min/L
- Trep Concentration (μM) 0 min [3]: 0.0425 µM
- Trep Concentration (μM) 15 min [3]: 0.647 µM
- Trep Concentration (μM) 30 min [3]: 0.626 µM
- Trep Concentration (μM) 60 min [3]: 0.608 µM
- Trep Concentration (μM) 120 min [3]: 0.55 µM
- AUC ([3]; human): 67.97 µmol·min/L

Compound: CCCCCC(CCC1C(O)CC2Cc3c(cccc3OCC(=O)O)CC21)OC(=O)OC (stereo not drawn) [Prodrug IV]
- Mono AUC (treprostinil formed) ([1]; rat): 70.0 µmol·min/L
- AUC Mono (treprostinil formed) [5]: 49.7 µmol·min/L
- Mono AUC (treprostinil formed) ([2]; dog): 48.0 µmol·min/L
- AUC Mono (treprostinil formed) [6]: 56.0 µmol·min/L
- Mono AUC (treprostinil formed) ([4]; human): 9.59 µmol·min/L
- Mono AUC (treprostinil formed) ([3]; human): 39.8 µmol·min/L
- AUC Mono (treprostinil formed) [7]: 16.9 µmol·min/L

Compound: C[C@]12CC[C@H]3[C@@H](CCC4=CC(=O)CC[C@@]43C)[C@@H]1CC[C@@H]2O [Testosterone, testosterone, reference compound]
- Half-life (positive control) ([3]; human hepatocytes, 1 μM, control): 4.82 min

Compound: CCCCCC(O)CCC1C(O)CC2Cc3c(cccc3OCC(=O)NCC(=O)O)CC21 (stereo not drawn) [VII new]
- AUC ([4]; human): 0.00 µmol·min/L

Compound: CCCCCC(O)CCC1C(O)CC2Cc3c(cccc3OCC(=O)NCC(=O)O)CC21 (stereo not drawn) [VII orig]
- AUC ([4]; human): 0.14 µmol·min/L

Compound: CCCCCC(CCC1C(O)CC2Cc3c(cccc3OCC(=O)O)CC21)OC(=O)NC (stereo not drawn) [VIII]
- Trep Concentration (μM) 0 min [1]: 0 µM
- Trep Concentration (μM) 15 min [1]: 0 µM
- Trep Concentration (μM) 30 min [1]: 0 µM
- Trep Concentration (μM) 60 min [1]: 0.00511 µM
- Trep Concentration (μM) 120 min [1]: 0 µM
- AUC ([1]; rat): 0.23 µmol·min/L
- Trep Concentration (μM) 0 min [2]: 0 µM
- Trep Concentration (μM) 15 min [2]: 0 µM
- Trep Concentration (μM) 30 min [2]: 0 µM
- Trep Concentration (μM) 60 min [2]: 0 µM
- Trep Concentration (μM) 120 min [2]: 0 µM
- AUC ([2]; dog): 0.00 µmol·min/L
- Trep Concentration 0 min [4]: 0 µM
- Trep Concentration 30 min [4]: 0 µM
- Trep Concentration 60 min [4]: 0 µM
- Trep Concentration 120 min [4]: 0 µM
- AUC ([4]; human): 0.00 µmol·min/L
- Trep Concentration (μM) 0 min [3]: 0 µM
- Trep Concentration (μM) 15 min [3]: 0 µM
- Trep Concentration (μM) 30 min [3]: 0 µM
- Trep Concentration (μM) 60 min [3]: 0.00464 µM
- Trep Concentration (μM) 120 min [3]: 0 µM
- AUC ([3]; human): 0.21 µmol·min/L

Compound: CCCCCC(CCC1C(O)CC2Cc3c(cccc3OCC(=O)O)CC21)OC(=O)OCCOCCOC (stereo not drawn) [XLI]
- Trep Concentration 0 min [4]: 0 µM
- Trep Concentration 30 min [4]: 0.0526 µM
- Trep Concentration 60 min [4]: 0.091 µM
- Trep Concentration 120 min [4]: 0.19 µM
- AUC ([4]; human): 11.37 µmol·min/L

Compound: CCCCCC(CCC1C(O)CC2Cc3c(cccc3OCC(=O)O)CC21)OC(=O)OCCOC (stereo not drawn) [XL]
- Trep Concentration 0 min [4]: 0 µM
- Trep Concentration 30 min [4]: 0.202 µM
- Trep Concentration 60 min [4]: 0.329 µM
- Trep Concentration 120 min [4]: 0.59 µM
- AUC ([4]; human): 38.57 µmol·min/L

Compound: CCCCCC(CCC1C(O)CC2Cc3c(cccc3OCC(=O)O)CC21)OC(=O)CCC(=O)O (stereo not drawn) [XX new]
- Trep Concentration 0 min [4]: 0 µM
- Trep Concentration 30 min [4]: 0.00878 µM
- Trep Concentration 60 min [4]: 0.0149 µM
- Trep Concentration 120 min [4]: 0.0271 µM
- AUC ([4]; human): 1.75 µmol·min/L
